Results published in ChEMBL document CHEMBL3593233, “Caryophyllene sesquiterpenes from the marine-derived fungus Ascotricha sp. ZJ-M-5 by the one strain-many compounds strategy” (2014).

Tests used:
[1] = tested on: HL-60; experiment: Growth inhibition of human HL60 cells after 72 hrs by trypan blue assay; type: functional; conditions: HL-60, 72 h
[2] = tested on: K562; experiment: Growth inhibition of human K562 cells after 72 hrs by trypan blue assay; type: functional; conditions: K562, 72 h

Structure (SMILES)	GI50 [1]	GI50 [2]
CO[C@@H]1[C@H]2[C@H](O)O[C@@]3([C@@H](OC(C)=O)C/C(C)=C/[C@H]1O)[C@@H]2CC3(C)C	8.5 µM	12.3 µM
CC(=O)O[C@H]1C/C(C)=C/[C@@H](O)[C@H](O)[C@H]2[C@H](O)O[C@]13[C@@H]2CC3(C)C	6.9 µM	10.1 µM
CC(=O)O[C@H]1C/C(C)=C/[C@@H](O)/C=C(/CO)[C@H]2CC(C)(C)[C@]12O	> 100 µM	> 100 µM
